The record followed here is US10590129B2 (Incozen Therapeutics Pvt. Ltd., priority 2010, dated 2020).

Counter-ions that a name gives are not always drawn.

For one data set, the system named is MKN-45 cells. Briefly: Inhibition of MKN-45 proliferation (MTT). The class given is cell-based, human. Conditions: Homo sapiens, MKN-45, MKN-45 proliferation. On the procedure:
Inhibition of MKN-45 Proliferation:
Cell proliferation assays were carried out using the high Met expressing human gastric adenocarcinoma cell line, MKN-45, according to the following schedule:
Day 1: Cells were plated in 96-well plates in complete growth medium.
Day 2: Compounds at desired concentrations were added.
Day 5: Cell viability was determined using the 3-[4,5-dimethylthiazol-2-yl]-2,5-diphenyltetrazolium bromide (MTT) dye reduction test.

On to `CN(C)CCCNC(=O)c1ccc(-c2ccc3nnn(Cc4ccc5ncccc5c4)c3n2)cc1F` (as salt: hydrochloride) [Ex 121, N-(3-(dimethylamino)propyl)-2-fluoro-4-(3-(quinolin-6-ylmethyl)-3H-[1,2,3]triazolo[4,5-b]pyridin-5-yl)benzamide dihydrochloride], for which the melting point lay in the range of 137 to 140 °C.
Take `COc1ccc(-c2ccc3nnn(Cc4ccc5ncccc5c4)c3n2)cc1` [Ex 1, 6-((5-(4-Methoxyphenyl)-3H-[1,2,3]triazolo[4,5-b]pyridin-3-yl)methyl)quinoline]: the melting point lay in the range of 144 to 146 °C. In the data set with MKN-45 cells, this compound showed an inhibition at 1 µM of 25 to 50%.
In the case of `OCc1cccc(-c2ccc3nnn(Cc4ccc5ncccc5c4)c3n2)c1` [Ex 4, (3-(3-(quinolin-6-ylmethyl)-3H-[1,2,3]triazolo[4,5-b]pyridin-5-yl)phenyl)methanol], the melting point fell in the range of 191 to 193 °C. Also, the GI50 in the data set on MKN-45 cells fell in the range of 150 to 500 nM.
`OCc1ccc(-c2ccc3nnn(Cc4ccc(F)cc4)c3n2)cc1` [Ex 11, (4-(3-(4-Fluorobenzyl)-3H-[1,2,3]triazolo[4,5-b]pyridin-5-yl)phenyl)methanol]: the melting point lay within 210 to 213 °C.
For `O=C(O)c1ccc(-c2ccc3nnn(Cc4c(F)ccc(F)c4Cl)c3n2)cc1F` [Ex 18, 4-(3-(2-Chloro-3,6-difluorobenzyl)-3H-[1,2,3]triazolo[4,5-b]pyridin-5-yl)-2-fluorobenzoic acid], the melting point was 211 to 213 °C. The compound further yielded an inhibition at 1 µM in the data set with MKN-45 cells below 25%.
The matching figures for `CNC(=O)c1ccc(-c2ccc3nnn(Cc4c(F)ccc(F)c4Cl)c3n2)cc1F` [Ex 19, 4-(3-(2-Chloro-3,6-difluorobenzyl)-3H-[1,2,3]triazolo[4,5-b]pyridin-5-yl)-2-fluoro-N-methylbenzamide]: 213 to 215 °C and below 25%.
The matching figures for `FC(F)(F)Oc1cccc(-c2ccc3nnn(Cc4ccc5ncccc5c4)c3n2)c1` [Ex 23, 6-((5-(3-(trifluoromethoxy)phenyl)-3H-[1,2,3]triazolo[4,5-b]pyridin-3-yl)methyl)quinoline]: 140 to 142 °C and below 25%.
The matching figures for `Oc1cccc(-c2ccc3nnn(Cc4ccc5ncccc5c4)c3n2)c1` [Ex 24, 3-(3-(quinolin-6-ylmethyl)-3H-[1,2,3]triazolo[4,5-b]pyridin-5-yl)phenol]: 255 to 257 °C and below 25%.
Compound `FC(F)Oc1cccc(-c2ccc3nnn(Cc4ccc5ncccc5c4)c3n2)c1` [Ex 25, 6-((5-(3-(difluoromethoxy)phenyl)-3H-[1,2,3]triazolo[4,5-b]pyridin-3-yl)methyl) quinoline] gave a melting point of 122 to 125 °C. This compound returned an inhibition at 1 µM in the data set on MKN-45 cells below 25%.
For `O=C(NC1CCCCC1)c1ccc(-c2ccc3nnn(Cc4ccc5ncccc5c4)c3n2)cc1F` [Ex 45, N-cyclohexyl-2-fluoro-4-(3-(quinolin-6-ylmethyl)-3H-[1,2,3]triazolo[4,5-b]pyridin-5-yl)benzamide], the melting point was in the range of 172 to 175 °C.
Compound `O=C(Nc1ccncc1)c1ccc(-c2ccc3nnn(Cc4ccc5ncccc5c4)c3n2)cc1F` [Ex 47, 2-Fluoro-N-(pyridin-4-yl)-4-(3-(quinolin-6-ylmethyl)-3H-[1,2,3]triazolo[4,5-b]pyridin-5-yl)benzamide] displayed a melting point of 217 to 219 °C. For the same compound, in the data set with MKN-45 cells, the inhibition at 0.1 µM is below 25% and the inhibition at 1 µM was 50 to 75%.
The matching figures for `O=C(NCc1ccccc1)c1ccc(-c2ccc3nnn(Cc4ccc5ncccc5c4)c3n2)cc1F` [Ex 48, N-Benzyl-2-fluoro-4-(3-(quinolin-6-ylmethyl)-3H-[1,2,3]triazolo[4,5-b]pyridin-5-yl)benzamide]: 163 to 165 °C, below 25% and 75 to 100%.
With `CN(C)C(=O)c1ccc(-c2ccc3nnn(Cc4ccc5ncccc5c4)c3n2)cc1F` [Ex 49, 2-Fluoro-N,N-dimethyl-4-(3-(quinolin-6-ylmethyl)-3H-[1,2,3]triazolo[4,5-b]pyridin-5-yl)benzamide], the melting point lay in the range of 163 to 165 °C. In the data set on MKN-45 cells, this compound registered an inhibition at 0.1 µM below 25% and an inhibition at 1 µM of 25 to 50%.
The compound `O=C(O)CNC(=O)c1ccc(-c2ccc3nnn(Cc4ccc5ncccc5c4)c3n2)cc1F` [Ex 51, 2-(2-Fluoro-4-(3-(quinolin-6-ylmethyl)-3H-[1,2,3]triazolo[4,5-b]pyridin-5-yl)benzamido)acetic acid] returned a melting point of 252 to 254 °C. In the data set on MKN-45 cells, this compound yielded an inhibition at 0.1 µM below 25% and an inhibition at 1 µM below 25%.
Take `Fc1cccc(-c2ccc3nnn(Cc4ccc5ncccc5c4)c3n2)c1` [Ex 56, 6-((5-(3-Fluorophenyl)-3H-[1,2,3]triazolo[4,5-b]pyridin-3-yl)methyl)quinoline]: the melting point fell in the range of 145 to 147 °C. In the data set with MKN-45 cells, this compound registered an inhibition at 0.1 µM below 25% and an inhibition at 1 µM below 25%.
`CON(C)C(=O)c1ccc(-c2ccc3nnn(Cc4ccc5ncccc5c4)c3n2)cc1F.Cl` [Ex 59, 2-Fluoro-N-methoxy-N-methyl-4-(3-(quinolin-6-ylmethyl)-3H-[1,2,3]triazolo[4,5-b]pyridin-5-yl)benzamide hydrochloride] came in with a melting point of 201 to 202 °C. In the data set with MKN-45 cells, the inhibition at 0.1 µM is below 25% and the inhibition at 1 µM lay in the range of 50 to 75%.
The compound `CC(C)(C)NC(=O)c1ccc(-c2ccc3nnn(Cc4ccc5ncccc5c4)c3n2)cc1F` [Ex 60, N-tert-Butyl-2-fluoro-4-(3-(quinolin-6-ylmethyl)-3H-[1,2,3]triazolo[4,5-b]pyridin-5-yl) benzamide] had a melting point of 210 to 212 °C. For the same compound, in the data set with MKN-45 cells, the inhibition at 0.1 µM is below 25% and the inhibition at 1 µM is below 25%.
`NCCCNC(=O)c1ccc(-c2ccc3nnn(Cc4ccc5ncccc5c4)c3n2)cc1F` [Ex 112, N-(3-Aminopropyl)-2-fluoro-4-(3-(quinolin-6-ylmethyl)-3H-[1,2,3]triazolo[4,5-b]pyridin-5-yl)benzamide] came in with a melting point of 292 to 294 °C.
For the compound `O=C(NC1CC1)c1ccc(-c2ccc3nnn(Cc4ccc5ncccc5c4)c3n2)cc1Cl` [Ex 113, 2-Chloro-N-cyclopropyl-4-(3-(quinolin-6-ylmethyl)-3H-[1,2,3]triazolo[4,5-b]pyridin-5-yl)benzamide], the melting point was in the range of 197 to 199 °C.
Take `CCCn1cc(-c2ccc3nnn(Cc4ccc5ncccc5c4)c3n2)cn1` [Ex 153, 6-((5-(1-Propyl-1H-pyrazol-4-yl)-3H-[1,2,3]triazolo[4,5-b]pyridin-3-yl)methyl)quinoline]: the melting point fell in the range of 128 to 130 °C.
`O=C(O)Cn1cc(-c2ccc3nnn(Cc4ccc5ncccc5c4)c3n2)cn1` [Ex 155, 2-(4-(3-(Quinolin-6-ylmethyl)-3H-[1,2,3]triazolo[4,5-b]pyridin-5-yl)-1H-pyrazol-1-yl)acetic acid] yielded a melting point above 270 °C.
In turn, `O[C@@H]1CCN(c2ccc3nnn(Cc4ccc5ncccc5c4)c3n2)C1` [Ex 158, (R)-1-(3-(Quinolin-6-ylmethyl)-3H-[1,2,3]triazolo[4,5-b]pyridin-5-yl)pyrrolidin-3-ol] yielded a melting point of 167 to 169 °C.
Still for that read-out and setting: the value for `OCCn1cc(-c2ccc3nnn(Cc4ccc(F)cc4)c3n2)cn1` [Ex 161, 2-(4-(3-(4-Fluorobenzyl)-3H-[1,2,3]triazolo[4,5-b]pyridin-5-yl)-1H-pyrazol-1-yl)ethanol] was 204 to 206 °C.
Take `OCCn1cc(-c2ccc3nnn(Cc4c(F)ccc(F)c4Cl)c3n2)cn1` [Ex 165, 2-(4-(3-(2-Chloro-3,6-difluorobenzyl)-3H-[1,2,3]triazolo[4,5-b]pyridin-5-yl)-1H-pyrazol-1-yl)ethanol]: the melting point is 143 to 145 °C.
In the data set with MKN-45 cells, `NC(=O)c1ccc(-c2ccc3ncn(Cc4ccc5ncccc5c4)c3n2)cc1Cl` [Ex 215, 2-Chloro-4-(3-(quinolin-6-ylmethyl)-3H-imidazo[4,5-b]pyridin-5-yl)benzamide] showed an inhibition at 0.1 µM below 25%.
On the same count and under the same terms, for `CC(=NO)c1ccc2nnn(Cc3ccc4ncccc4c3)c2n1` [Ex 216, 1-(3-(Quinolin-6-ylmethyl)-3H-[1,2,3]triazolo[4,5-b]pyridin-5-yl)ethanone oxime] the value was below 25%.
With `CON=C(C)c1ccc2nnn(Cc3ccc4ncccc4c3)c2n1` [Ex 217, 1-(3-(Quinolin-6-ylmethyl)-3H-[1,2,3]triazolo[4,5-b]pyridin-5-yl)ethanone O-methyl oxime], the inhibition at 0.1 µM with MKN-45 cells lay within 50 to 75%.
`CC(=O)NN=C(C)c1ccc2nnn(Cc3ccc4ncccc4c3)c2n1` [Ex 218, N′-(1-(3-(Quinolin-6-ylmethyl)-3H-[1,2,3]triazolo[4,5-b]pyridin-5-yl)ethylidene) acetohydrazide]: the inhibition at 0.1 µM with MKN-45 cells was below 25%.
Same read-out and setting: for `CN1CCN(c2ccc3nnn(Cc4ccc5ncccc5c4)c3n2)CC1` [Ex 219, 6-((5-(4-Methylpiperazin-1-yl)-3H-[1,2,3]triazolo[4,5-b]pyridin-3-yl)methyl)quinoline] the value was below 25%; for `NC(=O)c1ccc(-c2ccc3nnn(Cc4ccc5ncccc5c4)c3n2)cc1C(F)(F)F` [Ex 223, 4-(3-(Quinolin-6-ylmethyl)-3H-[1,2,3]triazolo[4,5-b]pyridin-5-yl)-2-(trifluoromethyl)benzamide], 75 to 100%; for `NC(=O)c1ccc(-c2ccc3nnn(Cc4ccc5c(ccc[n+]5[O-])c4)c3n2)cc1Cl` [Ex 224, 6-((5-(4-carbamoyl-3-chlorophenyl)-3H-[1,2,3]triazolo[4,5-b]pyridin-3-yl)methyl)quinoline 1-oxide], 25 to 50%.
With `CCNC(=O)c1ccc(-c2ccc3nnn(Cc4ccc5ncccc5c4)c3n2)cc1Cl` [Ex 225, 2-chloro-N-ethyl-4-(3-(quinolin-6-ylmethyl)-3H-[1,2,3]triazolo[4,5-b]pyridin-5-yl)benzamide hydrochloride], in the data set on MKN-45 cells, the inhibition at 0.1 µM is 75 to 100% and the inhibition at 1 µM fell in the range of 50 to 75%.
